≈ marks a conversion by molar mass, not a printed value.
Assays:
Test in all cases: Anti-mycotic action in vitro (MIC, serial dilution test)
Assay type in all cases: cell-based
[1] = test system: Aspergillus niger; conditions: 28° C, 24 to 96 hours, dilution series 100-40-20-10-4-1, read-out: Minimal inhibitory concentration (MIC), Aspergillus niger
Description: (§1) The Table summarises the anti-mycotic actions in vitro of several preparations towards several species of fungi:
(§2) The MIC determination was carried out in a serial dilution test, in the dilution series 100-40-20-10-4-1 γ/ml of substrate. The following were used as nutrient substrates:
(§3) The incubation temperature was 28° C, and the incubation time was 24 to 96 hours.

[2] = test system: Penicillium commune; conditions: 28° C, 24 to 96 hours, dilution series 100-40-20-10-4-1, read-out: Minimal inhibitory concentration (MIC), Penicillium commune
Description: as §1, §2, §3

[3] = test system: Candida albicans; conditions: 28° C, 24 to 96 hours, meat water-glucose-bouillon (yeasts), dilution series 100-40-20-10-4-1, read-out: Minimal inhibitory concentration (MIC), Candida albicans
Description: as §1, §2
b. for yeasts: meat water -- glucose -- bouillon.
as §3

[4] = test system: Microsporon felineum; conditions: 28° C, 24 to 96 hours; Sabouraud's test medium (Dermatophytes); dilution series 100-40-20-10-4-1; read-out: Minimal inhibitory concentration (MIC), Microsporon felineum
Description: as §1, §2
(§4) a. for Dermatophytes: Sabouraud's test medium
as §3

[5] = test system: Trichophyton mentagrophytes; conditions: 28° C, 24 to 96 hours, Sabouraud's test medium (Dermatophytes), dilution series 100-40-20-10-4-1, read-out: Minimal inhibitory concentration (MIC), Trichophyton mentagrophytes
Description: as §1, §2, §4, §3

`c1ccc(C(c2ccccc2)(c2cncnc2)n2ccnc2)cc1` [Example 1, Diphenyl-pyrimid-5-yl-imidazol-1-yl-methane] gave an MIC [1] of 10 µg/mL (≈ 32 µM), an MIC [2] of 100 µg/mL (≈ 320 µM) and an MIC [3] of 40 µg/mL (≈ 128 µM). The MIC [4] was 40 µg/mL (≈ 128 µM) and the MIC [5] was 4 µg/mL (≈ 12.8 µM).

With `c1ccc(C(c2ccccc2)(c2cnccn2)n2ccnc2)cc1` [Example 2, Diphenyl-pyrazyl-imidazol-1-yl-methane] the MIC [1] was 10 µg/mL (≈ 32 µM), the MIC [2] was 40 µg/mL (≈ 128 µM) and the MIC [3] was 40 µg/mL (≈ 128 µM). For the same compound, the MIC [4] was 10 µg/mL (≈ 32 µM) and the MIC [5] was 4 µg/mL (≈ 12.8 µM).

`Fc1ccc(C(c2ccccc2)(c2cnccn2)n2ccnc2)cc1` (stereo not drawn) [Example 3, 4-Fluorophenyl-phenyl-pyrazyl-imidazol-1-yl-methane] showed an MIC [1] of 4 µg/mL (≈ 12.1 µM), an MIC [2] of 4 µg/mL (≈ 12.1 µM) and an MIC [3] of 4 µg/mL (≈ 12.1 µM). The MIC [4] was 4 µg/mL (≈ 12.1 µM) and the MIC [5] was < 1 µg/mL.
